The source of these data is ChEMBL document CHEMBL4619795, “Establishing the Structure-Activity Relationship of Daptomycin” (ACS Med Chem Lett, 2020).

Holding throughout (format): functional
The subject of test [1] is Staphylococcus aureus. Kind of test: Antibacterial activity against methicillin-resistant Staphylococcus aureus 14 assessed as bacterial growth inhibition in presence of 50 ug/ml calcium ions by CLSI protocol based broth microdilution method. Background: Dilution methods test growth across graded concentrations, often in twofold steps.
The subject of test [2] is Staphylococcus aureus. Kind of test: Antibacterial activity against methicillin-resistant Staphylococcus aureus 11 assessed as bacterial growth inhibition in presence of 50 ug/ml calcium ions by CLSI protocol based broth microdilution method.
Test [3] concerns Staphylococcus aureus. Kind of test: Antibacterial activity against methicillin-resistant Staphylococcus aureus 88 assessed as bacterial growth inhibition in presence of 50 ug/ml calcium ions by CLSI protocol based broth microdilution method.
Test [4] concerns Enterococcus. Kind of test: Antibacterial activity against Enterococcus 6 assessed as bacterial growth inhibition in presence of 50 ug/ml calcium ions by CLSI protocol based broth microdilution method.
In test [5] the test system is Enterococcus faecalis. Kind of test: Antibacterial activity against Enterococcus faecalis ATCC 29212 assessed as bacterial growth inhibition in presence of 50 ug/ml calcium ions by CLSI protocol based broth microdilution method.
Test [6] concerns Enterococcus. In words: Antibacterial activity against Enterococcus 60 assessed as bacterial growth inhibition in presence of 50 ug/ml calcium ions by CLSI protocol based broth microdilution method.
The subject of test [7] is Staphylococcus aureus. In words: Antibacterial activity against Staphylococcus aureus ATCC 29213 assessed as bacterial growth inhibition in presence of 50 ug/ml calcium ions by CLSI protocol based broth microdilution method.
Test [8] concerns Enterococcus faecalis. In words: Antibacterial activity against Streptococcus faecalis assessed as bacterial growth inhibition in presence of 50 ug/ml calcium ions by CLSI protocol based broth microdilution method.
Test [9] concerns Staphylococcus aureus. Kind of test: Antibacterial activity against methicillin-resistant Staphylococcus aureus 86 assessed as bacterial growth inhibition in presence of 50 ug/ml calcium ions by CLSI protocol based broth microdilution method.

One may read the MIC as the smallest concentration in the dilution series that meets the test's criterion for growth inhibition.

As to `CCCCCCCCCC(=O)N[C@@H](Cc1c[nH]c2ccccc12)C(=O)N[C@@H](CC(N)=O)C(=O)N[C@@H](CC(=O)O)C(=O)N[C@@H]1C(=O)NCC(=O)N[C@@H](CCCN)C(=O)N[C@@H](CC(=O)O)C(=O)N[C@H](C)C(=O)N[C@@H](CC(=O)O)C(=O)N(C)CC(=O)N[C@H](CO)C(=O)N[C@@H]([C@@H](C)CC(=O)O)C(=O)N[C@@H](CC(=O)c2ccccc2N)C(=O)O[C@@H]1C`, the MIC in [1], in [2], in test [3], in test [4], in test [5] and in test [6] was ≥ 32 µg/mL each time. Further, the minimum inhibitory concentration (MIC) in test [7], in [8] and in test [9] was ≥ 32 µg/mL each time.
In the case of `CCCCCCCCCC(=O)N[C@@H](Cc1c[nH]c2ccccc12)C(=O)N[C@@H](CC(N)=O)C(=O)N[C@@H](CC(=O)O)C(=O)N[C@@H]1C(=O)NCC(=O)N[C@@H]([C@@H](C)CC)C(=O)N[C@@H](CC(=O)O)C(=O)N[C@H](C)C(=O)N[C@@H](CC(=O)O)C(=O)NCC(=O)N[C@H](CO)C(=O)N[C@@H]([C@@H](C)CC(=O)O)C(=O)N[C@@H](CC(=O)c2ccccc2N)C(=O)O[C@@H]1C`, the MIC in [1] is ≥ 32 µg/mL; in test [2], ≥ 32 µg/mL; in test [3] it was 4 µg/mL; in test [4] it was ≥ 64 µg/mL; in test [5] it was ≥ 64 µg/mL; in [6], 32 µg/mL. Further, the minimum inhibitory concentration (MIC) in test [7] was 8 µg/mL; in test [8], ≥ 64 µg/mL; in test [9] it was 8 µg/mL.
Regarding `CCCCCCCCCC(=O)N[C@@H](Cc1c[nH]c2ccccc12)C(=O)N[C@@H](CC(N)=O)C(=O)N[C@@H](CC(=O)O)C(=O)N[C@@H]1C(=O)NCC(=O)N[C@@H](Cc2ccc(O)cc2)C(=O)N[C@@H](CC(=O)O)C(=O)N[C@H](C)C(=O)N[C@@H](CC(=O)O)C(=O)NCC(=O)N[C@H](CO)C(=O)N[C@@H]([C@@H](C)CC(=O)O)C(=O)N[C@@H](CC(=O)c2ccccc2N)C(=O)O[C@@H]1C`, the minimum inhibitory concentration (MIC) in test [1] is 0.5 µg/mL; in test [2], 1 µg/mL; in test [3], 4 µg/mL; in [4], ≥ 32 µg/mL; in [5] it was ≥ 32 µg/mL; in test [6], 16 µg/mL. Moreover, the MIC in test [7] was 1 µg/mL; in [8] it was ≥ 32 µg/mL; in [9] it was 4 µg/mL.
On to `CCCCCCCCCC(=O)N[C@@H](Cc1c[nH]c2ccccc12)C(=O)N[C@@H](CC(N)=O)C(=O)N[C@@H](CC(=O)O)C(=O)N[C@@H]1C(=O)NCC(=O)N[C@@H](Cc2ccccc2)C(=O)N[C@@H](CC(=O)O)C(=O)N[C@H](C)C(=O)N[C@@H](CC(=O)O)C(=O)NCC(=O)N[C@H](CO)C(=O)N[C@@H]([C@@H](C)CC(=O)O)C(=O)N[C@@H](CC(=O)c2ccccc2N)C(=O)O[C@@H]1C`, for which the MIC was ≥ 32 µg/mL in test [1]; ≥ 32 µg/mL in test [2]; 16 µg/mL in test [3]; ≥ 32 µg/mL in [4]; ≥ 32 µg/mL in test [5]; ≥ 32 µg/mL in [6]. Further, the figures for the MIC in [7], in test [8] and in test [9] were 16 µg/mL, ≥ 32 µg/mL and 16 µg/mL, respectively.
In the case of `C[C@H]1NC(=O)[C@H](CC(=O)O)NC(=O)[C@H](CCCN)NC(=O)CNC(=O)[C@@H](NC(=O)[C@H](CC(=O)O)NC(=O)[C@H](CC(N)=O)NC(=O)[C@H](Cc2c[nH]c3ccccc23)NC(=O)c2ccc(C#Cc3ccccc3)cc2)[C@@H](C)OC(=O)[C@H](CC(=O)c2ccccc2N)NC(=O)[C@H]([C@@H](C)CC(=O)O)NC(=O)[C@@H](CO)NC(=O)CNC(=O)[C@H](CC(=O)O)NC1=O`, the MIC came out at 0.5 µg/mL in test [1]; 0.25 µg/mL in [2]; 0.5 µg/mL in test [3]; 8 µg/mL in test [4]; 8 µg/mL in test [5]; 2 µg/mL in [6]. In addition, the MIC in test [7] was 0.5 µg/mL; in test [8] it was 1 µg/mL; in [9], 0.5 µg/mL.
As to `CCCCCCCCCC(=O)N[C@@H](Cc1c[nH]c2ccccc12)C(=O)N[C@@H](CC(N)=O)C(=O)N[C@@H](CC(=O)O)C(=O)N[C@@H]1C(=O)NCC(=O)N[C@@H](CC(C)C)C(=O)N[C@@H](CC(=O)O)C(=O)N[C@H](C)C(=O)N[C@@H](CC(=O)O)C(=O)NCC(=O)N[C@H](CO)C(=O)N[C@@H]([C@@H](C)CC(=O)O)C(=O)N[C@@H](CC(=O)c2ccccc2N)C(=O)O[C@@H]1C`, the minimum inhibitory concentration (MIC) was 0.5 µg/mL in [1]; 1 µg/mL in test [2]; 2 µg/mL in test [3]; ≥ 32 µg/mL in test [4]; ≥ 32 µg/mL in test [5]; 16 µg/mL in test [6]. Further, the results for the minimal inhibitory concentration (MIC) in test [7], in [8] and in test [9] were 4 µg/mL, ≥ 32 µg/mL and 4 µg/mL, respectively.
As for `CCCCCCCCCC(=O)N[C@@H](Cc1c[nH]c2ccccc12)C(=O)N[C@@H](CC(N)=O)C(=O)N[C@@H](CC(=O)O)C(=O)N[C@@H]1C(=O)NCC(=O)N[C@@H](C)C(=O)N[C@@H](CC(=O)O)C(=O)N[C@H](C)C(=O)N[C@@H](CC(=O)O)C(=O)NCC(=O)N[C@H](CO)C(=O)N[C@@H]([C@@H](C)CC(=O)O)C(=O)N[C@@H](CC(=O)c2ccccc2N)C(=O)O[C@@H]1C`, the MIC in [1] was determined as 0.25 µg/mL; in test [2], 0.5 µg/mL; in test [3], 1 µg/mL; in test [4], 2 µg/mL; in test [5], 4 µg/mL; in test [6], 1 µg/mL. Further, the MIC worked out at 0.5 µg/mL in test [7], 4 µg/mL in test [8] and 0.5 µg/mL in test [9].
In the case of `C[C@H]1NC(=O)[C@H](CC(=O)O)NC(=O)[C@H](CCCN)NC(=O)CNC(=O)[C@@H](NC(=O)[C@H](CC(=O)O)NC(=O)[C@H](CC(N)=O)NC(=O)[C@H](Cc2c[nH]c3ccccc23)NC(=O)c2ccc(C#CC#Cc3ccccc3)cc2)[C@@H](C)OC(=O)[C@H](CC(=O)c2ccccc2N)NC(=O)[C@H]([C@@H](C)CC(=O)O)NC(=O)[C@@H](CO)NC(=O)CNC(=O)[C@H](CC(=O)O)NC1=O`, the minimum inhibitory concentration (MIC) stood at 0.5 µg/mL in [1]; 1 µg/mL in test [2]; 0.5 µg/mL in test [3]; 4 µg/mL in [4]; 1 µg/mL in test [5]; 1 µg/mL in [6]. Also, the figures for the MIC in [7], in [8] and in test [9] were 0.5 µg/mL, 1 µg/mL and 0.5 µg/mL, respectively.
On to `CCCCCCCCCC(=O)N[C@@H](Cc1c[nH]c2ccccc12)C(=O)N[C@@H](CC(N)=O)C(=O)N[C@@H](CC(=O)O)C(=O)N[C@@H]1C(=O)NCC(=O)N[C@@H](CCCN)C(=O)N[C@@H](CC(=O)O)C(=O)N[C@H](C)C(=O)N[C@@H](CC(N)=O)C(=O)NCC(=O)N[C@H](CO)C(=O)N[C@@H]([C@@H](C)CC(=O)O)C(=O)N[C@@H](CC(=O)c2ccccc2N)C(=O)O[C@@H]1C`, for which the minimal inhibitory concentration (MIC) in test [1] was ≥ 32 µg/mL; in [2] it was ≥ 32 µg/mL; in test [3] it was 16 µg/mL; in [4], ≥ 32 µg/mL; in test [5], ≥ 32 µg/mL; in test [6] it was ≥ 32 µg/mL. Moreover, the MIC was 16 µg/mL in test [7], ≥ 32 µg/mL in test [8] and 32 µg/mL in test [9].
Take `CCCCCCCCCC(=O)N[C@@H](Cc1c[nH]c2ccccc12)C(=O)N[C@@H](CC(N)=O)C(=O)N[C@@H](CC(=O)O)C(=O)N[C@@H]1C(=O)NCC(=O)N[C@@H](CSSC[C@@H]2NC(=O)CNC(=O)[C@@H](NC(=O)[C@H](CC(=O)O)NC(=O)[C@H](CC(N)=O)NC(=O)[C@H](Cc3c[nH]c4ccccc34)NC(=O)CCCCCCCCC)[C@@H](C)OC(=O)[C@H](CC(=O)c3ccccc3N)NC(=O)[C@H]([C@@H](C)CC(=O)O)NC(=O)[C@@H](CO)NC(=O)CNC(=O)[C@H](CC(=O)O)NC(=O)[C@@H](C)NC(=O)[C@H](CC(=O)O)NC2=O)C(=O)N[C@@H](CC(=O)O)C(=O)N[C@H](C)C(=O)N[C@@H](CC(=O)O)C(=O)NCC(=O)N[C@H](CO)C(=O)N[C@@H]([C@@H](C)CC(=O)O)C(=O)N[C@@H](CC(=O)c2ccccc2N)C(=O)O[C@@H]1C`: the minimum inhibitory concentration (MIC) is 4 µg/mL in test [1]; 8 µg/mL in [2]; 16 µg/mL in [3]; 16 µg/mL in test [4]; 16 µg/mL in test [5]; 16 µg/mL in [6]. The MIC was 16 µg/mL in test [7], 4 µg/mL in test [8] and 8 µg/mL in test [9].
On to `C[C@H]1NC(=O)[C@H](CC(=O)O)NC(=O)[C@H](CCCN)NC(=O)CNC(=O)[C@@H](NC(=O)[C@H](CC(=O)O)NC(=O)[C@H](CC(N)=O)NC(=O)[C@H](Cc2c[nH]c3ccccc23)NC(=O)c2ccc(C#Cc3ccc(-c4ccccc4)cc3)cc2)[C@@H](C)OC(=O)[C@H](CC(=O)c2ccccc2N)NC(=O)[C@H]([C@@H](C)CC(=O)O)NC(=O)[C@@H](CO)NC(=O)CNC(=O)[C@H](CC(=O)O)NC1=O`, for which the minimum inhibitory concentration (MIC) in [1] is 1 µg/mL; in [2], 1 µg/mL; in [3], 1 µg/mL; in test [4] it was 0.5 µg/mL; in [5] it was 0.5 µg/mL; in test [6] it was 2 µg/mL. In addition, the MIC in [7], in test [8] and in [9] was 2 µg/mL throughout.
With `CCCCCCCCCC(=O)N[C@@H](Cc1c[nH]c2ccccc12)C(=O)N[C@@H](CC(N)=O)C(=O)N[C@@H](CC(=O)O)C(=O)N[C@@H]1C(=O)NCC(=O)N[C@@H]([C@@H](C)O)C(=O)N[C@@H](CC(=O)O)C(=O)N[C@H](C)C(=O)N[C@@H](CC(=O)O)C(=O)NCC(=O)N[C@H](CO)C(=O)N[C@@H]([C@@H](C)CC(=O)O)C(=O)N[C@@H](CC(=O)c2ccccc2N)C(=O)O[C@@H]1C`, the minimum inhibitory concentration (MIC) in test [1] was 16 µg/mL; in test [2] it was 16 µg/mL; in [3] it was 2 µg/mL; in [4], ≥ 32 µg/mL; in test [5], ≥ 32 µg/mL; in test [6] it was ≥ 32 µg/mL. The MIC is 2 µg/mL in test [7], ≥ 32 µg/mL in [8] and 2 µg/mL in test [9].
